The source of these data is patent publication US11679126B2, “Methods to enhance microvascular engraftment of bioengineered and primary tissues” (Children's Medical Center Corporation, priority 2016, dated 2023).

For assay [1], the system named is A-Grafts (assembled human vascular networks). The assay can be described thus: A-Graft revascularization after implantation into nude mice. The assay is classed as in vivo. The procedure: (§1) Photopolymerizable methacrylated gelatin (GelMA) hydrogel was synthesized as previously described (Chen, et al. Adv. Funct. Mater. 22: 2027-2039 (2012)). GelMA prepolymer solution was prepared in PBS at 80° C. (5 w/v % final) with photoinitiator Irgacure 2959 (0.5 w/v %; CIBA Chemicals), and then allowed to cool down to 37° C. in a water bath. ECFCs and MSCs (4×10^5 total; 1:1 ratio) were suspended in 200 μL of GelMA solution and the mixture was polymerized by exposure to 7.5 mW/cm^2 UV light for 15 s at 37° C. Polymerized cell-laden constructs were referred to as unassembled grafts or U-Grafts. Alternatively, on indicated experiments, U-Grafts were constructed with ice-cold Phenol Red-free Matrigel (BD Bioscience). […]
(§2) Microvessel density was reported as the average number of erythrocyte-filled vessels (vessels/mm^2) in H&E-stained sections from the middle of the implants as previously described (Melero-Martin, et al. Circ. Res. 103:194-202 (2008)). The entire area of each section was analyzed. On specified experiments, human-specific microvessel density was quantified by evaluation of slides immunostained for human-specific CD31 (h-CD31). Perfused microvessel density was measured by injection of FITC-labeled lectins (UEA-1 or Iso-B4) before euthanizing graft-bearing mice, followed by staining of lectin-labeled vessels with anti-UEA-1 or anti-FITC antibodies. […]

The subject of assay [2] is neutrophils. The assay can be described thus: Neutrophil recruitment into implanted A-Grafts at day 2 (flow cytometry). The assay is classed as in vivo, nude mice. The procedure: as §1
(§3) Grafts were removed from euthanized mice and cells were retrieved by enzymatic (1 mg/mL collagenase and 2.5 U/mL dispase) digestion for 1 h at 37° C. […] Retrieved cells were also stained for flow cytometry and analyzed using a Guava easyCyte 6HT/2L flow cytometer (Millipore Corporation, Billerica, Mass.) and FlowJo software (Tree Star Inc., Ashland, Oreg.). […] In indicated experiments, retrieved cells were sorted into mCD45+/mLy6G+(neutrophils) and mCD45+/mLy6G−cells by fluorescence-activated cell sorting (FACS) using a FACSAria II 5-LASER sorter system (BD Bioscience). Sorted cells were analyzed immediately for gene expression by qPCR. […]
In general terms: A flow cytometer gives signals particle by particle.

A further assay deals with CXCL1, CXCL8, and IL6. In words: Human cytokine protein array of conditioned media from A-Grafts. In kind it is cell-based. The settings on record: A-Grafts exposed for 24 h. The procedure:
as §1, with “Bioscience). Assembled grafts or A-Grafts were constructed by culturing U-Grafts in vitro for 7 days using EGM2 with […]. A-Grafts contained easily observable, fully-assembled vascular networks. Both, U-Grafts and A-Grafts were subcutaneously implanted into back of 6-week-old male athymic nu/nu mice for engraftment studies. On specified experiments, DsRed-labeled ECFCs were used to visualize the formation of assembled vascular networks in A-Grafts.” for “Bioscience).”
The presence of selected cytokines was evaluated in samples of CM with human cytokine protein arrays (R&D Systems Inc.) according to the manufacturer's instructions. […]

The test system of assay [3] is neutrophils. In words: Neutrophil recruitment plug assay. The assay is classed as in vivo, nu/nu mice. The settings on record: Matrigel plugs containing CM, day 2. The protocol: Concentrated CM (50 μL) was mixed with 200-μL of Matrigel and injected subcutaneously into nu/nu mice. After 2 days, plugs were explanted and infiltrated cells were retrieved by enzymatic digestion and subjected to flow cytometric analysis. Concentrated basal media (basal-M: EBM-2, 5% FBS) served as control. In indicated experiments, neutralizing antibodies against IL6, CXCL1 or CXCL8 (5 μg/antibody/plug) were added to concentrated CM 30 min prior to implantation. Individual neutralizing antibodies and the combination of three were compared.

The test system of assay [4] is m-Islets endogenous gfp+ microvessels. The assay can be described thus: Vascular sprouting of m-Islets embedded in hydrogel in vitro. In kind it is cell-based, mouse. The settings on record: 7 days in vitro. From the text: In order to develop an interface for the engraftment of islets, we embedded isolated m-Islets in our hydrogel in the presence or absence of DAPT (a γ-secretase inhibitor) and examined the effect on the vasculature of islets for 7 days. […] This is consistent with previous data in which transiently blocking Notch enhanced the revascularization potential of A-grafts (FIG. 14) (52). We also examined the effect of unassembled DsRed-ECFCs (FIG. 19B). […] Moreover, the newly formed ECFC-lined vessels (DsRed+) interacted with the gfp+ vasculature of the m-Islets, and this interconnectivity was enhanced in the presence of DAPT (FIG. 19B).

In assay [5] the test system is U-Grafts (human ECFCs + MSCs). In words: U-Graft vascularization after subcutaneous implantation into treated nude mice. In kind it is in vivo. Details: number of perfused vessels at day 7 in U-grafts: dose or concentration left out as unconfirmed. The settings on record: for U-Graft vascularization / microvessel density compared with control: U-Grafts in treated mice, day 7. The protocol: as §1, with “Bioscience). Assembled grafts or A-Grafts were constructed by culturing U-Grafts in vitro for 7 days using EGM2 with […]. A-Grafts contained easily observable, fully-assembled vascular networks. Both, U-Grafts and A-Grafts were subcutaneously implanted into back of 6-week-old male athymic nu/nu mice for engraftment studies. On specified experiments, DsRed-labeled ECFCs were used to visualize the formation of assembled vascular networks in A-Grafts.” for “Bioscience).”
as §2
[…] Neutrophil recruitment at day 2 and graft vascularization at day 7 were measured as described before. […]

The test system of assay [6] is neutrophils. In words: Neutrophil recruitment into implanted U-Grafts at day 2 (flow cytometry). The settings on record: 7.5 mg/kg intraperitoneally daily. In kind it is in vivo, nude mice. The protocol: as §1, §3
The target in another assay is T1, CXCR2 (Homo sapiens, UniProt P25025).
T1 sequence (P25025 1-360): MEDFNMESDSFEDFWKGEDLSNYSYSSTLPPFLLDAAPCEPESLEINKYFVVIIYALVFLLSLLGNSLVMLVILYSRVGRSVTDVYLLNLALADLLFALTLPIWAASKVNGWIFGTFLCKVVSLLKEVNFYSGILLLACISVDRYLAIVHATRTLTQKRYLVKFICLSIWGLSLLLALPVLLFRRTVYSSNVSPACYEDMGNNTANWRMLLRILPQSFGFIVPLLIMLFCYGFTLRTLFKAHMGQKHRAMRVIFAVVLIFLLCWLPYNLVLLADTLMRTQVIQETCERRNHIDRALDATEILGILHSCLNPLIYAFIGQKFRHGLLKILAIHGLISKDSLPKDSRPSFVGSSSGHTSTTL
The settings on record: in vitro and in vivo, previous studies; cited from earlier work.

For `C[C@H](NC(=O)Cc1cc(F)cc(F)c1)C(=O)N[C@H](C(=O)OC(C)(C)C)c1ccccc1` [DAPT, N—[N-(3,5-Difluorophenylacetyl-L-alanyl)]-S-phenylglycine t-Butyl ester], the “perivascular coverage (α-SMA+ cells) of human vessels in A-Grafts” value in assay [1] (day 7, A-Grafts treated 24 h before implantation) was “did not compromise proper perivascular coverage”. Besides, the “perfused microvessel networks in A-Grafts” value in assay [1] (day 7 in vivo, compared with untreated / basal-M A-Grafts) is on record as “more extensive networks of perfused microvessels”. The “neutrophils in A-Grafts compared with control” value with neutrophils [2] is listed as “significantly more”. Besides, the “expression of cytokines in conditioned media of A-Grafts” value with CXCL1, CXCL8, and IL6 is listed as “reactivated the expression of several cytokines”. Further, in the assay on neutrophils [3], the “neutrophil recruitment into subcutaneous plugs” value was “recruited significantly more neutrophils”. Further, the “sprouting activity of endogenous gfp+ microvessels (number and length of sprouts)” value in assay [4] (m-Islets in hydrogel, vs untreated islets) is given as “significantly higher”. Moreover, the “interconnectivity between ECFC-lined vessels (DsRed+) and m-Islets vasculature (gfp+)” value in assay [4] (m-Islets with unassembled DsRed-ECFCs in hydrogel) is “enhanced”.
As to `O=C(Nc1ccc([N+](=O)[O-])cc1O)Nc1ccccc1Br` [SB225002], in assay [5], the “U-Graft vascularization / microvessel density compared with control” value was “significantly lower”. In the assay with neutrophils [6], the “neutrophil presence in implanted U-Grafts” value is on record as “significantly impaired”. In addition, the “neutrophil chemotaxis in response to CXCL8” value at CXCR2 is “effectively inhibits”.
Regarding `NC(=O)c1ccc(-c2nc(-c3ccccn3)c(-c3ccc4c(c3)OCO4)[nH]2)cc1` [SB432542], the “U-Graft vascularization / microvessel density compared with control” value in assay [5] is given as “completely abrogated”. Further, the “number of perfused vessels at day 7 in U-grafts” value in assay [5] (mice treated daily, intraperitoneal) was “insignificant”.
